Measured values reported in PMC12444472, “BCI inhibits MKP3 by targeting the kinase-binding domain and disrupting ERK2 interaction” (The Journal of Biological Chemistry, 2025).
Values joined by “and” are separate entries in the source; they are usually repeats but may differ in a detail not shown here. Identical values can stand only once.

Columns and labels:
MKP3^FL [1] = biological target: T1, MKP3^FL (Homo sapiens, UniProt Q16828); test: Phosphatase activity toward pNPP in the presence of ERK2; format: biochemical
T1 construct: MKP3(1–381) (MKP3^FL); made in house; host or cells: Escherichia coli BL21(DE3)
T1 sequence (Q16828 1-381): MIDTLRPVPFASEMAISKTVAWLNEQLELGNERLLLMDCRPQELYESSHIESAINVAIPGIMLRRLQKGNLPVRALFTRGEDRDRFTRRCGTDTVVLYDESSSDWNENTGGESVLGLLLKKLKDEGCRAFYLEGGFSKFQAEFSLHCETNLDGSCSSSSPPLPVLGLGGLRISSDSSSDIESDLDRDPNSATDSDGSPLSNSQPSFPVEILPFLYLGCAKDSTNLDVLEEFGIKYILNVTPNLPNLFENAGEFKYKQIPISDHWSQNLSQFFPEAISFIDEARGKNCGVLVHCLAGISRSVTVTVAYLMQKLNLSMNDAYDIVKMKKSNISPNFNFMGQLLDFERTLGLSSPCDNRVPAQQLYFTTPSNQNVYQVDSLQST
Description: The phosphatase activity of MKP3 toward pNPP was measured using continuous spectrophotometric assays, either in the absence or the presence of ERK2 at a 1:1 M ratio with MKP3. Experiments were conducted at 25 °C in a reaction mixture with a total volume of 1.8 ml, containing 50 mM Mops (pH 7.0), 100 mM NaCl, and 0.1 mM EDTA. MKP3 (1 μM) was preincubated with varying concentrations of the inhibitor BCI for 5 min before initiating the reaction by adding pNPP at concentrations ranging from 0 to 14 mM. Continuous absorbance changes were recorded using a PerkinElmer LAMBDA 45 spectrophotometer equipped with a magnetic stirrer in the cuvette holder. The production of p-nitrophenol was monitored at 410 nm using an extinction coefficient of 18,000 M^-1 cm^-1.
Stock solutions of BCI (dissolved in DMSO) at different concentrations were prepared to maintain a constant DMSO concentration across all BCI concentrations in the phosphatase inhibition assays, thereby eliminating potential effects of varying DMSO levels on detection. Initial reaction rates were determined from the linear slope of progress curves, and the data were analyzed using nonlinear regression. Kinetic parameters (kcat and Km) were obtained by fitting the data to the Michaelis–Menten equation: v0 = kcat[E][S]/(Km + [S]). […]

MKPX^KBD = biological target: T2, MKPX^KBD (Homo sapiens, UniProt Q16829); test: MST affinity measurement; details: one-site binding model, mean ± SD of three experiments
T2 construct: MKPX(1–140) (MKPX^KBD); made in house; host or cells: Escherichia coli BL21(DE3)
T2 sequence (Q16829 1-140 isoform Q16829-2): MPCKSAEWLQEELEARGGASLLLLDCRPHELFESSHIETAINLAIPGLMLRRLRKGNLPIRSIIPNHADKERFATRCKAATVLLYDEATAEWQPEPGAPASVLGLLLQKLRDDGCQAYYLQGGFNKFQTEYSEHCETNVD
Description: (§1) MST measurements were performed using fluorescently labeled proteins and the inhibitor BCI (CAS: 1245792-51-1; TargetMol) on a Monolith instrument (NanoTemper Technologies). The RED–Tris–NTA second-generation dye was dissolved in MST buffer (20 mM Hepes, pH 7.4, 200 mM NaCl, and 0.05% Tween-20) to prepare a 5 μM stock solution. Fluorescent labeling of MKP proteins followed the standard protocol of the MO-L018 RED–Tris–NTA protein labeling kit, leveraging the His-tag–dye interaction.
(§2) The BCI compound was prepared as a 600 to 750 μM stock solution in MST buffer with 10% DMSO to enhance solubility, followed by a 16-point serial dilution. The diluted BCI solutions were thoroughly mixed with labeled MKP proteins (50 nM) at a 1:1 volume ratio, yielding a final volume of 10 μl. The reaction mixtures were incubated in the dark for 10 min at room temperature before being loaded into standard glass capillaries. Measurements were carried out on the Monolith instrument (100% LED, 40% IR laser power) with a 20 s laser on time. The normalized fluorescence values from triplicate measurements were averaged at each concentration and fitted to a 1:1 binding model using the KD model in MO.Affinity software (v3.0.5, NanoTemper Technologies) to determine the binding affinities between MKP proteins and the BCI inhibitor. The final reported Kd value represents the mean ± SD of Kd values obtained from three independent experiments, each fitted separately.

MKP3^FL [2] = biological target: T1, MKP3^FL; test: MST affinity measurement; details: one-site binding model, mean ± SD of three experiments
Description: as §1, §2

MKP5^KBD = biological target: T3, MKP5^KBD (Homo sapiens, UniProt Q9Y6W6); test: MST affinity measurement; details: one-site binding model, mean ± SD of three experiments
T3 construct: MKP5(139–287) (MKP5^KBD); made in house; host or cells: Escherichia coli BL21(DE3)
T3 sequence (Q9Y6W6 139-287): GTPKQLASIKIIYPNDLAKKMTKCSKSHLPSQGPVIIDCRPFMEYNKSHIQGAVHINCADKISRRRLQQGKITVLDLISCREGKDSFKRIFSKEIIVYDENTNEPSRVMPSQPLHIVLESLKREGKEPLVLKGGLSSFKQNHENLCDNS
Description: as §1, §2

MKP2^KBD = biological target: T4, MKP2^KBD (Homo sapiens, UniProt Q13115); test: MST affinity measurement; details: one-site binding model, mean ± SD of three experiments
T4 construct: MKP2(5–159) (MKP2^KBD); made in house; host or cells: Escherichia coli BL21(DE3)
T4 sequence (Q13115 5-159): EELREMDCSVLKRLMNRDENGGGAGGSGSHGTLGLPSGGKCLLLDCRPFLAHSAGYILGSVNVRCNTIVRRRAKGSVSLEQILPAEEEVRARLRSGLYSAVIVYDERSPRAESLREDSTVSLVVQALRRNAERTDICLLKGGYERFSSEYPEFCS
Description: as §1, §2

MKP1^KBD = biological target: T5, MKP1^KBD (Homo sapiens, UniProt P28562); test: MST affinity measurement; details: one-site binding model, mean ± SD of three experiments
T5 construct: MKP1(1–141) (MKP1^KBD); made in house; host or cells: Escherichia coli BL21(DE3)
T5 sequence (P28562 1-141): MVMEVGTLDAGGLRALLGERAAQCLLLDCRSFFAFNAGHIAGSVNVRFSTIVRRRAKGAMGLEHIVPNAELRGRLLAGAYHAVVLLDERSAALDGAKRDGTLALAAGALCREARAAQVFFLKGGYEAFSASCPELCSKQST
Description: as §1, §2

MKP3^KBD = biological target: T6, MKP3^KBD (Homo sapiens, UniProt Q16828); test: MST affinity measurement; details: one-site binding model, mean ± SD of three experiments
T6 construct: MKP3(1–154) (MKP3^KBD); made in house; host or cells: Escherichia coli BL21(DE3)
T6 sequence (Q16828 1-154): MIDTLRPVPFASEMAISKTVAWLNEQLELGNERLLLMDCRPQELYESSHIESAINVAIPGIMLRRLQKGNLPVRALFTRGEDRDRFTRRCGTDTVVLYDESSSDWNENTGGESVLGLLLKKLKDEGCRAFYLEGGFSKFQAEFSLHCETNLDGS
Description: as §1, §2

ERK2-induced MKP3 activity relative to its initial level (MKP3^FL [1]; BCI at molar concentration 20 times that of ERK2): one-seventh
effect on MKP3's Michaelis constant (Km) for pNPP (MKP3^FL [1]; ERK2 at 1:1 with MKP3^FL): did not significantly alter
Kd (MKPX^KBD): ~14.1 µM and 14.1 µM
Kd (MKP3^FL [2]): 9.2 ± 1.8 µM
Kd (MKP5^KBD): ~8.5 µM and 8.5 µM
Kd (MKP2^KBD): ~49 µM and 49 µM
Kd (MKP1^KBD): ~73.1 µM and 73.1 µM
Kd (MKP3^KBD): 15 µM and ~15 µM
Structure (SMILES): O=C1/C(=C/c2ccccc2)C(NC2CCCCC2)c2ccccc21 (centres unmarked) [BCI, (E)-2-benzylidene-3-(cyclohexylamino)-2,3-dihydro-1H-inden-1-one]
